Experimental data from article PMC10343724, “Evaluation of Antimicrobial, Anticholinesterase Potential of Indole Derivatives and Unexpectedly Synthesized Novel Benzodiazine: Characterization, DFT and Hirshfeld Charge Analysis” (Molecules, 2023).

What was measured:
acetylcholinesterase = acetylcholinesterase (Homo sapiens, UniProt P22303); assay: biochemical; details: apparent value; due to solubility issues the IC50 values can be far less; read-out: IC50, acetylcholinesterase inhibition
Method: (§1) Azine derivatives, benzoxazepines and benzodiazepines show various biological activities, including antibacterial, antifungal, and anticholinesterase activities. This makes benzo-diazine an excellent candidate for exploration of its potential for cholinesterase inhibition and antimicrobial activities.
(§2) Antibacterial activity was assessed against clinically isolated, antibiotic-resistant strains of Salmonella typhi and Staphylococcus aureus using Disk diffusion assay, as previously described. Anticholinesterase activity was also performed, as described earlier for indoles.

[1] = test system: antibiotic-resistant strains of Staphylococcus aureus; assay: Disc diffusion assay, antibacterial activity; format: cell-based; details: clinically isolated antibiotic-resistant S. aureus
Method: (§3) Disc diffusion assay was performed to evaluate the antibacterial potential of compounds (8, 9, 10 and 12) against antibiotic-resistant strains of Salmonella Typhi and Staphylococcus aureus. […] Heterocyclic compounds are well-known for their antibacterial potential. A series of Benzoxazepine derivatives have shown promising antibacterial activities against Staphylococcus sciuri (zone of inhibition as 8–21 mm) and E. coli (zone of inhibition as 8–14 mm). Isoxazolyl benzo [1, 4]diazepine-5-ones have shown antibacterial against both G + ve (B. subtilis, B. sphaericus, S.aureus) and G-ve bacteria (P. aeruginosa, K. aerogenes, C. violaceum).
as §2

[2] = Solubility behaviour in the anticholinesterase reaction mixture; format: physicochemical; details: anticholinesterase assay reaction mixture
From the text: as §1

[3] = test system: antibiotic-resistant strains of Salmonella Typhi; assay: Disc diffusion assay, antibacterial activity; format: cell-based; details: clinically isolated antibiotic-resistant S. Typhi
Method: as §3, §2

acetylcholinesterase, sequence (P22303 32-614): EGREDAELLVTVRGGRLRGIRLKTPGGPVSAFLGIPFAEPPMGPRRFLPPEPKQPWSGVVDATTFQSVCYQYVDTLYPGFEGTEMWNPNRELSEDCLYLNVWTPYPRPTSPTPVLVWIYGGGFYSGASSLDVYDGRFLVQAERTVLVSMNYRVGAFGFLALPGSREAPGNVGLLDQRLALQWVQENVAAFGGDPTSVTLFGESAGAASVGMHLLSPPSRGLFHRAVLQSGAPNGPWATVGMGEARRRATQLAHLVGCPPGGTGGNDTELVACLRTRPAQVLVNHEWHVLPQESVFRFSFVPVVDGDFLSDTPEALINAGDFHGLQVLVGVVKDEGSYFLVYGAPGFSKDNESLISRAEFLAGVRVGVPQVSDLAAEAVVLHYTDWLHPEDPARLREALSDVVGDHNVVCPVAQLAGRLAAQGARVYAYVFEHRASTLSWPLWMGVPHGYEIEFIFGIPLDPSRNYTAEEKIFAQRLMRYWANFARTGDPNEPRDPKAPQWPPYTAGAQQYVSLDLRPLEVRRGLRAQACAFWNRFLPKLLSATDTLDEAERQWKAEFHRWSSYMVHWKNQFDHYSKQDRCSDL

Row | Structure (SMILES) | IC50 (acetylcholinesterase) [µM] | zone of inhibition (ZOI) [1] | precipitation in the reaction mixture [2] | zone of inhibition (ZOI) [3]
1 | COc1cc(OC)c2c(-c3ccccc3)c(-c3ccccc3)[nH]c2c1C(=O)C(Cl)(Cl)Cl [Compound 8, 7-Trichloro-acetyl-4,6-Dimethoxy-2,3-Diphenyl-1H-Indole] | 7.31 | ~ 18 mm |  | 
2 | COc1cc(OC)c2c(-c3ccccc3)c(-c3ccccc3)[nH]c2c1C(=O)O [Compound 9, 4,6-Dimethoxy-2,3-Diphenylindole-7-Carboxylic Acid] |  | ~21 mm | precipitated even at lower concentrations | 
3 | COc1cc(OC)c2c(-c3ccccc3)c(-c3ccccc3)[nH]c2c1C(N)=O [Compound 10, 4,6-Dimethoxy-2,3-Diphenyl-1H-Indole-7-Carboxamide] |  | ~17 mm |  | 
4 | COC(=O)C(C)Oc1nc(-c2ccccc2)nc2c(C(=O)c3ccccc3)c(OC)cc(OC)c12 (stereo not drawn) [Compound 12, 8-Benzoyl-5,7-Dimethoxy-4-(1‴-Methyoxycarbonylethoxy)-2-Phenyl-1,3-Benzodiazine] | 6.11 | ~20 mm | precipitated even at lower concentrations | ~ 13 mm
